# In US20260256789A1, “METHODS FOR TREATMENT OF CANCER” (Frontier Medicines Corporation, priority 2022, published 2026):
# Target: T1, KRAS G12C (GMPPNP-loaded) and cRAF Ras-binding domain (Homo sapiens, UniProt P01116, C118S/C51S/C80L/G12C)
# T1 construct: truncated version comprising amino acids 1-169
# Assay: Inhibition of KRAS G12C and cRAF binding (AlphaScreen)
# Details: KRAS G12C preloaded with GTP analogue GMPPNP, 2 hours preincubation
# Method in brief: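 Compounds (10-point, 1:3 from 50 μM; 2% DMSO) were incubated 2 h at room temperature with 0.5 nM GMPPNP-preloaded truncated Cys-light KRAS G12C, then 60-90 min with 0.75 nM GST-RBD of cRAF and AlphaScreen beads. Signal at 570 nm gave IC50 by 4-parameter regression, and a biotin-AviTag-GST counter assay excluded interference with the AlphaScreen readout.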
# T1 sequence (P01116 1-169 isoform P01116-2 G12C/C51S/C80L/C118S): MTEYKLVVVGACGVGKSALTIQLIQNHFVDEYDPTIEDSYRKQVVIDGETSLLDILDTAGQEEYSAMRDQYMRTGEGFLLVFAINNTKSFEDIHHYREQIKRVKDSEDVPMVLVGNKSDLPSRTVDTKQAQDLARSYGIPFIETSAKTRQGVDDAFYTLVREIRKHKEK
row,SMILES,IC50 [nM]
1,Cc1cc(/C=C/C(=O)N2CC[C@@H](N(C)c3nc(OC[C@@]45CCCN4C[C@H](F)C5)nc4c(F)c(-c5cccc(Cl)c5C5CC5)ncc34)C2)nc(C)n1 [Example 247],100 to 500
2,"Cc1cc(N)nc(-c2ncc3c(N4CCN(C#N)CC4)nc(OC[C@@]45CCCN4C[C@H](F)C5)nc3c2F)c1C(F)(F)F [Example 49, 4-(7-(6-amino-4-methyl-3-(trifluoromethyl)pyridin-2-yl)-8-fluoro-2-(((2R,7aS)-2-fluorohexahydro-1H-pyrrolizin-7a-yl)methoxy)pyrido[4,3-d]pyrimidin-4-yl)piperazine-1-carbonitrile]",100 to 500
3,C=CC(=O)N1CC[C@@H](N(C)c2nc(OC[C@@]34CCCN3C[C@H](F)C4)nc3c(F)c(-c4ncn5ccccc45)ncc23)C1 [Example 246],≥ 500
4,"C=CC(=O)N1CC(CN(C)c2nc(OC[C@@]34CCCN3C[C@H](F)C4)nc3c2C[C@@H](C)[C@H](c2nc(N)cc(C)c2C(F)(F)F)C3)C1 (single isomer, unassigned) [Example 58]",100 to 500
5,"Cc1noc(/C=C/C(=O)N2CC[C@@H](N(C)c3nc(OC[C@@]45CCCN4C[C@H](F)C5)nc4c3CCN(c3nc(N)cc(C)c3C(F)(F)F)C4)C2)n1 [Example 95, (E)-1-((R)-3-((7-(6-amino-4-methyl-3-(trifluoromethyl)pyridin-2-yl)-2-(((2R,7aS)-2-fluorotetrahydro-1H-pyrrolizin-7a(5H)-yl)methoxy)-5,6,7,8-tetrahydropyrido[3,4-d]pyrimidin-4-yl)(methyl)amino)pyrrolidin-1-yl)-3-(3-methyl-1,2,4-oxadiazol-5-yl)prop-2-en-1-one]",≥ 500
6,C=CC(=O)N1CC[C@@H](N(C)c2nc(OC[C@@]34CCCN3C[C@H](F)C4)nc3c(F)c(-c4scnc4C)ncc23)C1 [Example 183],≥ 500
7,C=CC(=O)N1CC[C@@H](N(C)c2nc(OC[C@@]34CCCN3C[C@H](F)C4)nc3c(F)c(-c4cncnc4C4CC4)ncc23)C1 [Example 260],≥ 500
8,C=CC(=O)N1CC[C@@H](N(C)c2nc(OC[C@@]34CCCN3C[C@H](F)C4)nc3c(F)c(-c4ccc(F)c(F)c4C4CC4)ncc23)C1 [Example 202],≥ 500
9,C=CC(=O)N1CC[C@@H](N(C)c2nc(OC[C@@]34CCCN3C[C@H](F)C4)nc3c(F)c(-c4cc(O)c(C)cc4C4CC4)ncc23)C1 [Example 228],≥ 500
10,C=CC(=O)N1CC[C@@H](N(C)c2nc(OC[C@@]34CCCN3C[C@H](F)C4)nc3c(F)c(-c4cc(O)cnc4C4CC4)ncc23)C1 [Example 253],≥ 500
11,"C=CC(=O)N1CC[C@@H](N(C)c2nc(OCC34CCCN3CCC4)nc3c2C[C@@H](C)[C@H](c2nc(N)cc(C)c2C(F)(F)F)C3)C1 [Example 149, 1-((R)-3-(((6R,7R)-7-(6-amino-4-methyl-3-(trifluoromethyl)pyridin-2-yl)-6-methyl-2-((tetrahydro-1H-pyrrolizin-7a(5H)-yl)methoxy)-5,6,7,8-tetrahydroquinazolin-4-yl)(methyl)amino)pyrrolidin-1-yl)prop-2-en-1-one]",≥ 500
12,C=CC(=O)N1CC[C@@H](N(C)c2nc(OC[C@@]34CCCN3C[C@H](F)C4)nc3c(F)c(-c4cc(C(F)F)cc(Cl)c4C4CC4)ncc23)C1 [Example 263],≥ 500
13,C=CC(=O)N1CC[C@@H](N(C)c2nc(OC[C@@]34CCCN3C[C@H](F)C4)nc3c(F)c(-c4cncc(Cl)c4C4CC4)ncc23)C1 [Example 240],≥ 500
14,"C=CC(=O)N1CC[C@@H](N(C)c2nc(OC[C@@]34CCCN3C[C@H](F)C4)nc3c2C[C@@H](C)[C@H](c2nc(N)cc(C)c2C(F)(F)F)C3)C1 [Example 59, 1-((R)-3-(((6R,7R)-7-(6-amino-4-methyl-3-(trifluoromethyl)pyridin-2-yl)-2-(((2R,7aS)-2-fluorohexahydro-1H-pyrrolizin-7a-yl)methoxy)-6-methyl-5,6,7,8-tetrahydroquinazolin-4-yl)(methyl)amino)pyrrolidin-1-yl)prop-2-en-1-one]",100 to 500
15,C=CC(=O)N1CC[C@@H](N(C)c2nc(OC[C@@]34CCCN3C[C@H](F)C4)nc3c(F)c(-c4cncc5ccc(F)c(F)c45)ncc23)C1 [Example 190],≥ 500
16,"C=CC(=O)N1CC[C@@H](N(C)c2nc(OC[C@@]34CCCN3C[C@H](F)C4)nc3c(F)c(-c4nc(N)ccc4C(F)(F)F)ncc23)C1 [Example 46, 1-((R)-3-((7-(6-amino-3-(trifluoromethyl)pyridin-2-yl)-8-fluoro-2-(((2R,7aS)-2-fluorotetrahydro-1H-pyrrolizin-7a(5H)-yl)methoxy)pyrido[4,3-d]pyrimidin-4-yl)(methyl)amino)pyrrolidin-1-yl)prop-2-en-1-one]",100 to 500
17,CC(C)c1noc(/C=C/C(=O)N2CC(CN(C)c3nc(OC[C@@]45CCCN4C[C@H](F)C5)nc4c(F)c(-c5nc(N)cc6cccc(Cl)c56)ncc34)C2)n1 [Example 118],100 to 500

# Second part, the compound after the results:
row,IC50 [nM],SMILES
1,10 to 100,CN(c1nc(OC[C@@]23CCCN2C[C@H](F)C3)nc2c(F)c(-c3cccc(Cl)c3C3CC3)ncc12)[C@@H]1CCN(C(=O)/C=C/CN2C3COCC2C3)C1 [Example 256]
2,10 to 100,"CN(C)C/C=C/C(=O)N1CC[C@@H](N(C)c2nc(OC[C@@]34CCCN3C[C@H](F)C4)nc3c(F)c(-c4nc(N)cc5cccc(Cl)c45)ncc23)C1 [Example 61, (E)-1-((R)-3-((7-(3-amino-8-chloroisoquinolin-1-yl)-8-fluoro-2-(((2R,7aS)-2-fluorohexahydro-1H-pyrrolizin-7a-yl)methoxy)pyrido[4,3-d]pyrimidin-4-yl)(methyl)amino)pyrrolidin-1-yl)-4-(dimethylamino)but-2-en-1-one]"
3,< 10,"CN1CC[C@@H]1/C=C/C(=O)N1CC[C@@H](N(C)c2nc(OC[C@@]34CCCN3C[C@H](F)C4)nc3c(F)c(-c4nc(N)cc5cccc(F)c45)ncc23)C1 (single isomer, unassigned) [Example 7]"
4,< 10,CN1CC[C@@H]1/C=C/C(=O)N1CC[C@@H](N(C)c2nc(OC[C@@]34CCCN3C[C@H](F)C4)nc3c(F)c(-c4nc(N)cc5cccc(F)c45)ncc23)C1 [Example 90]
5,10 to 100,CN(C)C/C=C/C(=O)N1CC[C@@H](N(C)c2nc(OC[C@@]34CCCN3C[C@H](F)C4)nc3c(F)c(-c4cccc(Cl)c4C4CC4)ncc23)C1 [Example 184]
6,10 to 100,Cc1cc(N)nc(-c2ncc3c(N(C)CC4CN(C(=O)/C=C/c5nc(C(C)C)no5)C4)nc(OC[C@@]45CCCN4C[C@H](F)C5)nc3c2F)c1C(F)(F)F [Example 154]
7,< 10,"Cc1cc(N)nc(-c2ncc3c(N(C)[C@@H]4CCN(C(=O)/C=C/c5nc(C(C)(F)F)no5)C4)nc(OC[C@@]45CCCN4C[C@H](F)C5)nc3c2F)c1C(F)(F)F [Example 56, (E)-1-((R)-3-((7-(6-amino-4-methyl-3-(trifluoromethyl)pyridin-2-yl)-8-fluoro-2-(((2R,7aS)-2-fluorotetrahydro-1H-pyrrolizin-7a(5H)-yl)methoxy)pyrido[4,3-d]pyrimidin-4-yl)(methyl)amino)pyrrolidin-1-yl)-3-(3-(1,1-difluoroethyl)-1,2,4-oxadiazol-5-yl)prop-2-en-1-one]"
8,< 10,CN(c1nc(OC[C@@]23CCCN2C[C@H](F)C3)nc2c(F)c(-c3nc(N)cc4cccc(F)c34)ncc12)[C@@H]1CCN(C(=O)/C=C/c2nc(C(C)(F)F)no2)C1 [Example 92]
9,< 10,CN(CC1CN(C(=O)/C=C/c2nc(C(C)(F)F)no2)C1)c1nc(OC[C@@]23CCCN2C[C@H](F)C3)nc2c(F)c(-c3nc(N)cc4cccc(F)c34)ncc12 [Example 113]
10,10 to 100,CN(C)CC#CC(=O)N1CC[C@@H](N(C)c2nc(OC[C@@]34CCCN3C[C@H](F)C4)nc3c(F)c(-c4nc(N)cc5cccc(Cl)c45)ncc23)C1 [Example 91]
11,10 to 100,"C=CC(=O)N1CC[C@@H](N(C)c2nc(OC[C@@]34CCCN3C[C@H](F)C4)nc3c(F)c(-c4nc(N)cc5cccc(Cl)c45)ncc23)C1 [Example 74, 1-((R)-3-((7-(3-amino-8-chloroisoquinolin-1-yl)-8-fluoro-2-(((2R,7aS)-2-fluorohexahydro-1H-pyrrolizin-7a-yl)methoxy)pyrido[4,3-d]pyrimidin-4-yl)(methyl)amino)pyrrolidin-1-yl)prop-2-en-1-one]"
12,< 10,CN1CC[C@@H]1/C=C/C(=O)N1CC[C@@H](N(C)c2nc(OC[C@@]34CCCN3C[C@H](F)C4)nc3c(F)c(-c4nc(N)cc5cccc(Cl)c45)ncc23)C1 [Example 99]
13,< 10,"CN(CC1CN(C(=O)/C=C/c2nc(C(C)(C)O)no2)C1)c1nc(OC[C@@]23CCCN2C[C@H](F)C3)nc2c(F)c(-c3nc(N)cc4cccc(F)c34)ncc12 [Example 35, (E)-1-(3-(((7-(3-amino-8-fluoroisoquinolin-1-yl)-8-fluoro-2-(((2R,7aS)-2-fluorohexahydro-1H-pyrrolizin-7a-yl)methoxy)pyrido[4,3-d]pyrimidin-4-yl)(methyl)amino)methyl)azetidin-1-yl)-3-(3-(2-hydroxypropan-2-yl)-1,2,4-oxadiazol-5-yl)prop-2-en-1-one]"
14,< 10,"Cc1cc(N)nc(-c2ncc3c(N(C)CC4CN(C(=O)/C=C/c5nc(C(C)C)no5)C4)nc(OC[C@@]45CCCN4C[C@H](F)C5)nc3c2F)c1C(F)(F)F [Example 51, (E)-1-(3-(((7-(6-amino-4-methyl-3-(trifluoromethyl)pyridin-2-yl)-8-fluoro-2-(((2R,7aS)-2-fluorohexahydro-1H-pyrrolizin-7a-yl)methoxy)pyrido[4,3-d]pyrimidin-4-yl)(methyl)amino)methyl)azetidin-1-yl)-3-(3-isopropyl-1,2,4-oxadiazol-5-yl)prop-2-en-1-one]"
15,< 10,CN(c1nc(OC[C@@]23CCCN2C[C@H](F)C3)nc2c(F)c(-c3nc(N)cc4cccc(Cl)c34)ncc12)[C@@H]1CCN(C(=O)/C=C/c2nc(C(C)(C)O)no2)C1 [Example 93]
